# Test results: patent US20220347266A1, “METHOD AND MEDICINE FOR TREATING DEPRESSIVE DISORDERS” (QINGDAO PRIMEDICINE PHARMACEUTICAL CO., LTD., priority 2018, published 2022)
# Where no end group is shown, it is not given here.
# Key:
# C57 mice = assay: Forced swim test (FST) of mice, behavioral despair model of depressive disorder; assay type: in vivo, mouse; settings: for immobility time of forced swimming mice: vs vehicle, FIG. 1
# Excerpt: Among the behavioral despair models, forced swim test of mice/rats is the most common animal model of depressive disorder to evaluate the effect of antidepressants. In this model, animals are forced to swim in water in a limited space. After struggling for many times but failing to escape, the animals may stop swimming and begin floating without struggling to escape anymore. This immobility is considered as the manifestation of behavioral despair and depression. This model has good predictive validity for antidepressants.
# By using ketamine metabolite HNK as a positive control medication, the effect of compound PMS-001 on depression-like behavior of C57 mice was investigated through forced swim test 1 hour and 24 hours after single medicinal intervention. […]; (SEQ ID NO: 3). Wherein the amino acid sequence YGRKKRRQRRR (SEQ ID NO: 2), also known as Tat peptide, is a carrier peptide, and can assist the polypeptide in penetration of the blood-brain barrier. […] However, it is unknown in the art whether a C-terminal polypeptide of GluR2 such as YKEGYNVYG (SEQ ID NO: 1) can be used in the treatment of depressive disorder, specifically major depressive disorder.
# The experimental animals were 6-week-old male C57 mice obtained from Shanghai SLAC Laboratory Animal Co., Ltd, with body weight of […]. They were transported to the Animal Breeding Center of Shanghai Institute of Materia Medica, Chinese Academy of Sciences (Animal production license: SCXK9 [Shanghai] 2004-0002, use license: SYXK [Shanghai] 2003-0029), and allowed to acclimatize in animal facilities for more than 3 days, with 6 individuals per cage. Mice were housed at room temperature (23±0.2° C.), with a 12 h/12 h light/dark cycle. Before the behavioral test, animals were moved to the behavior testing room 2 hours in advance for acclimation to relieve tension. […]
# 24 hours before administration, each mouse was placed into a cylinder tank for acclimation in the water environment for 10 min. […] Mice were videotaped for 6 minutes since being placed into water, and the immobility time for the last 4 minutes was calculated due to the fact that most animals were very active in the first two minutes (the criteria for immobility: mice stop struggling, keep immobility and make small movements to balance their bodies or float in water). […]
# All data analyses were performed with spss 22 data processing software. […] Data were expressed as Mean±SEM. *: p<0.05; **: p<0.01; ***: p<0.001.
# AMPAR = settings: from EP1,687,427B1; cited from earlier work
Sequence,"immobility time of forced swimming mice (C57 mice; 1 hour after administration, single 10 mg/kg intraperitoneal injection)","immobility time of forced swimming mice (C57 mice; 24 hours after administration, single 10 mg/kg intraperitoneal injection)",antidepressant effect compared to positive control HNK (C57 mice; same dose (10 mg/kg i.p.)),onset of antidepressant effect after administration (C57 mice; single 10 mg/kg intraperitoneal injection) [h],inhibition of NMDA-mediated excessive endocytosis of AMPAR (AMPAR)
YGRKKRRQRRRYKEGYNVYG [PMS-001],very significantly decrease,very significantly decrease,better rapid and lasting antidepressant effect,1,–
YKEGYNVYG (Artificially synthesized GluR2-3Y peptide),–,–,–,–,proved to inhibit
